Earlier results as cited in PMC8125234, “Cardiolipin Stabilizes and Increases Catalytic Efficiency of Carnitine Palmitoyltransferase II and Its Variants S113L, P50H, and Y479F” (International Journal of Molecular Sciences, 2021).

Molecular target: T1, CPT II variant S113L (Homo sapiens, UniProt P23786, S113L)
T1 construct: made in house; host or cells: Escherichia coli BL21Gold DE
T1 sequence (P23786 26-658 S113L): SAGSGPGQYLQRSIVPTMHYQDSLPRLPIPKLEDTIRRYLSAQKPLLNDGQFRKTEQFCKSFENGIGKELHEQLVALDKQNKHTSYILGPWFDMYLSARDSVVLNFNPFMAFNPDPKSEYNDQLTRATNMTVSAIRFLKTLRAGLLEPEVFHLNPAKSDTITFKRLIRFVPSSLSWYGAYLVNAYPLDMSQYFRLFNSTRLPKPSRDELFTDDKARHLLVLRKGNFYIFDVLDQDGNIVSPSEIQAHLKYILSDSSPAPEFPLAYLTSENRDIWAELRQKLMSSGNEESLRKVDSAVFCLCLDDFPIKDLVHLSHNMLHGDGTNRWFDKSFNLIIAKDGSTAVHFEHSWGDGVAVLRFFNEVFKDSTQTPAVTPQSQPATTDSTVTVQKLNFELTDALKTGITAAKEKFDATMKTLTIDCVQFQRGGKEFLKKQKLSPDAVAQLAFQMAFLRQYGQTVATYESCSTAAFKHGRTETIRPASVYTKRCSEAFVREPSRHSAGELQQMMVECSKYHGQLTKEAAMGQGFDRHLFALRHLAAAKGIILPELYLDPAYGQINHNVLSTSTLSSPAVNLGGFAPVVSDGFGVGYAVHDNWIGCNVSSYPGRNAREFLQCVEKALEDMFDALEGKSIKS
Design: method as in PMID 13534673
Conditions: cited from earlier work

Substance: Cardiolipin [CL]
- Effect of CL on enzyme activity: no benefit
